Measured values as given in ChEMBL document CHEMBL6074711, “Design, Synthesis, and Activity Evaluation of C-23-Modified 5-O-Mycaminosyltylonolide Derivatives” (ACS Med Chem Lett, 2024).
In brackets after ≈: the same amount, converted by molar mass.

Columns and labels:
[1] = test system: Staphylococcus aureus; assay: Antibacterial activity against Staphylococcus aureus ATCC25923 incubated for 16 to 20 hrs by broth microdilution method; type: functional; conditions: time 16-20 hrs
[2] = test system: Escherichia coli; assay: Antibacterial activity against Escherichia coli ATCC25922 incubated for 16 to 20 hrs by broth microdilution method; type: functional; conditions: time 16-20 hrs

Row | SMILES | MIC [1] | MIC [2]
1 | CCCN(C)C[C@H]1/C=C(C)/C=C/C(=O)[C@H](C)C[C@H](CCN(Cc2cn(-c3cnc4ccccc4c3)nn2)c2ccccc2)[C@H](O[C@@H]2O[C@H](C)[C@@H](O)[C@H](N(C)C)[C@H]2O)[C@@H](C)[C@H](O)CC(=O)O[C@@H]1CC | 0.5 µg/mL (≈ 0.533 µM) | 4 µg/mL (≈ 4.26 µM)
2 | CC[C@H]1OC(=O)C[C@@H](O)[C@H](C)[C@@H](O[C@@H]2O[C@H](C)[C@@H](O)[C@H](N(C)C)[C@H]2O)[C@@H](CCNCc2cn(-c3cnc4ccccc4c3)nn2)C[C@@H](C)C(=O)/C=C/C(C)=C/[C@@H]1CN(CC)CC | 0.5 µg/mL (≈ 0.58 µM) | 2 µg/mL (≈ 2.32 µM)
3 | CCCNC[C@H]1/C=C(C)/C=C/C(=O)[C@H](C)C[C@H](CCNCc2cn(-c3cnc4ccccc4c3)nn2)[C@H](O[C@@H]2O[C@H](C)[C@@H](O)[C@H](N(C)C)[C@H]2O)[C@@H](C)[C@H](O)CC(=O)O[C@@H]1CC | 1 µg/mL (≈ 1.18 µM) | 8 µg/mL (≈ 9.43 µM)
4 | CC[C@H]1OC(=O)C[C@@H](O)[C@H](C)[C@@H](O[C@@H]2O[C@H](C)[C@@H](O)[C@H](N(C)C)[C@H]2O)[C@@H](CCNCc2cn(-c3cnc4ccccc4c3)nn2)C[C@@H](C)C(=O)/C=C/C(C)=C/[C@@H]1CN(C)C(C)C | 0.5 µg/mL (≈ 0.58 µM) | 2 µg/mL (≈ 2.32 µM)
5 | CC[C@H]1OC(=O)C[C@@H](O)[C@H](C)[C@@H](O[C@@H]2O[C@H](C)[C@@H](O)[C@H](N(C)C)[C@H]2O)[C@@H](CCN(C)Cc2cn(-c3cnc4ccccc4c3)nn2)C[C@@H](C)C(=O)/C=C/C(C)=C/[C@@H]1CI | 2 µg/mL (≈ 2.15 µM) | 16 µg/mL (≈ 17.2 µM)
6 | CC[C@H]1OC(=O)C[C@@H](O)[C@H](C)[C@@H](O[C@@H]2O[C@H](C)[C@@H](O)[C@H](N(C)C)[C@H]2O)[C@@H](CCN(C)Cc2cn(-c3cnc4ccccc4c3)nn2)C[C@@H](C)C(=O)/C=C/C(C)=C/[C@@H]1CN(C)C1CCCCC1 | 1 µg/mL (≈ 1.09 µM) | 4 µg/mL (≈ 4.37 µM)
7 | CC[C@H]1OC(=O)C[C@@H](O)[C@H](C)[C@@H](O[C@@H]2O[C@H](C)[C@@H](O)[C@H](N(C)C)[C@H]2O)[C@@H](CCNCc2cn(-c3cnc4ccccc4c3)nn2)C[C@@H](C)C(=O)/C=C/C(C)=C/[C@@H]1CN1CCCCCC1 | 0.5 µg/mL (≈ 0.563 µM) | 1 µg/mL (≈ 1.13 µM)
8 | CCCNC[C@H]1/C=C(C)/C=C/C(=O)[C@H](C)C[C@H](CCN(C)Cc2cn(-c3cnc4ccccc4c3)nn2)[C@H](O[C@@H]2O[C@H](C)[C@@H](O)[C@H](N(C)C)[C@H]2O)[C@@H](C)[C@H](O)CC(=O)O[C@@H]1CC | 2 µg/mL (≈ 2.32 µM) | 8 µg/mL (≈ 9.28 µM)
9 | CC[C@H]1OC(=O)C[C@@H](O)[C@H](C)[C@@H](O[C@@H]2O[C@H](C)[C@@H](O)[C@H](N(C)C)[C@H]2O)[C@@H](CCNCc2cn(-c3cnc4ccccc4c3)nn2)C[C@@H](C)C(=O)/C=C/C(C)=C/[C@@H]1CN1CCCCCCC1 | 0.5 µg/mL (≈ 0.554 µM) | 2 µg/mL (≈ 2.22 µM)
10 | CCCCN(CCCC)C[C@H]1/C=C(C)/C=C/C(=O)[C@H](C)C[C@H](CCNCc2cn(-c3cnc4ccccc4c3)nn2)[C@H](O[C@@H]2O[C@H](C)[C@@H](O)[C@H](N(C)C)[C@H]2O)[C@@H](C)[C@H](O)CC(=O)O[C@@H]1CC | 2 µg/mL (≈ 2.18 µM) | 8 µg/mL (≈ 8.71 µM)
11 | CC[C@H]1OC(=O)C[C@@H](O)[C@H](C)[C@@H](O[C@@H]2O[C@H](C)[C@@H](O)[C@H](N(C)C)[C@H]2O)[C@@H](CCNCc2cn(-c3cnc4ccccc4c3)nn2)C[C@@H](C)C(=O)/C=C/C(C)=C/[C@@H]1CN(C)C | 0.5 µg/mL (≈ 0.599 µM) | 2 µg/mL (≈ 2.4 µM)
12 | CC[C@H]1OC(=O)C[C@@H](O)[C@H](C)[C@@H](O[C@@H]2O[C@H](C)[C@@H](O)[C@H](N(C)C)[C@H]2O)[C@@H](CCNCc2cn(-c3cnc4ccccc4c3)nn2)C[C@@H](C)C(=O)/C=C/C(C)=C/[C@@H]1CN(C)CC | 0.5 µg/mL (≈ 0.59 µM) | 4 µg/mL (≈ 4.72 µM)
13 | CC[C@H]1OC(=O)C[C@@H](O)[C@H](C)[C@@H](O[C@@H]2O[C@H](C)[C@@H](O)[C@H](N(C)C)[C@H]2O)[C@@H](CCN(Cc2cn(-c3cnc4ccccc4c3)nn2)c2ccccc2)C[C@@H](C)C(=O)/C=C/C(C)=C/[C@@H]1CN(C)CC | 0.5 µg/mL (≈ 0.541 µM) | 2 µg/mL (≈ 2.16 µM)
